Target: T1, human FXR (NR1H4) (Homo sapiens, UniProt Q96RI1)
T1 construct: host or cells: CHO (Chinese hamster ovary) reporter cells
T1 sequence (Q96RI1 1-486): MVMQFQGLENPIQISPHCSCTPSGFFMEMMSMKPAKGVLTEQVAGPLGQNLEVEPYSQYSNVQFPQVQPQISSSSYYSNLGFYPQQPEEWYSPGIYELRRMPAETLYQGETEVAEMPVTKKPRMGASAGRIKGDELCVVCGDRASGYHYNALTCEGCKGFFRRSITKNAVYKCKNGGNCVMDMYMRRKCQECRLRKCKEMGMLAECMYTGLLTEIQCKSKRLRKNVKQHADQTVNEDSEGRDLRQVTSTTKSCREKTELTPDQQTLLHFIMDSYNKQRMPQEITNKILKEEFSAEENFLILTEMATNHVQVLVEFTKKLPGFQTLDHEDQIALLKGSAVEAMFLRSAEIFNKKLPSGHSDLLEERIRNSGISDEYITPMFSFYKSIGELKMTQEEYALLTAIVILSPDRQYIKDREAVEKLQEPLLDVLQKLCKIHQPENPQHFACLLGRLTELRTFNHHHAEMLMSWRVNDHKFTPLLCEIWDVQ
Experiment: Human FXR (NR1H4) Assay: Gal4 promoter driven luciferase reporter transactivation in CHO cells (Indigo Bioscience kit IB00601); for Efficacy (%): efficacy normalized to CDCA set as 100%
Assay type: cell-based
Settings: for Emax: CHO, read-out: Efficacy (%); for EC50: Human FXR (NR1H4) reporter assay, potency ranges
Procedure, shortened: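 CHO reporter cells expressing human FXR with an FXR-responsive promoter-driven luciferase were treated with compound dose series at 0.2% DMSO for 22 h at 37 °C. Luciferase activity was then read by luminescence as the measure of FXR activation.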

Structure (SMILES) | Emax [%] | EC50 [µM]
CC1(S(=O)(=O)NC(=O)c2cc(F)c3nc(N4CCC(NCc5c(-c6c(Cl)cccc6Cl)noc5C5CC5)CC4)sc3c2)CC1 [Example 400-10] | 68 | 0.1 to 1
Cc1cc2nc(N3C4CCC3CC(NCc3c(-c5c(Cl)cccc5Cl)noc3C3CC3)C4)sc2cc1C(=O)NS(=O)(=O)C1(C)CC1 (stereo not drawn) [Example 400-11] | 79.3 | < 0.001
Cc1cc2nc(N3C4CCC3CC(NCc3c(-c5c(Cl)cccc5Cl)noc3C3CC3)C4)sc2cc1C(=O)NS(=O)(=O)N1CCCCC1 (stereo not drawn) [Example 400-12] | 115 | < 0.001
Cc1c(C(=O)NS(=O)(=O)C2(C)CC2)ccc2nc(N3C4CCC3CC(NCc3c(-c5c(Cl)cccc5Cl)noc3C3CC3)C4)sc12 (stereo not drawn) [Example 400-13] | 83.3 | 0.001 to 0.1
Cc1c(C(=O)NS(=O)(=O)N2CCCCC2)ccc2nc(N3C4CCC3CC(NCc3c(-c5c(Cl)cccc5Cl)noc3C3CC3)C4)sc12 (stereo not drawn) [Example 400-14] | 119 | < 0.001
CCOc1cc(C(=O)NS(=O)(=O)C2(C)CC2)cc2sc(N3C4CCC3CC(NCc3c(-c5c(Cl)cccc5Cl)noc3C3CC3)C4)nc12 (stereo not drawn) [Example 400-15] | 104 | < 0.001
CCOc1cc(C(=O)NS(=O)(=O)N2CCCCC2)cc2sc(N3C4CCC3CC(NCc3c(-c5c(Cl)cccc5Cl)noc3C3CC3)C4)nc12 (stereo not drawn) [Example 400-16] | 87.3 | < 0.001
CC(C)Oc1cc(C(=O)NS(=O)(=O)C2(C)CC2)cc2sc(N3C4CCC3CC(NCc3c(-c5c(Cl)cccc5Cl)noc3C3CC3)C4)nc12 (stereo not drawn) [Example 400-18] | 98 | < 0.001
CC(C)Oc1cc(C(=O)NS(=O)(=O)N2CCCCC2)cc2sc(N3C4CCC3CC(NCc3c(-c5c(Cl)cccc5Cl)noc3C3CC3)C4)nc12 (stereo not drawn) [Example 400-20] | 43.6 | 0.001 to 0.1
CC1(S(=O)(=O)NC(=O)c2cc3sc(N4C5CCC4CC(NCc4c(-c6c(Cl)cccc6Cl)noc4C4CC4)C5)nc3cc2F)CC1 (stereo not drawn) [Example 400-22] | 83.2 | < 0.001
O=C(NS(=O)(=O)N1CCCCC1)c1cc2sc(N3C4CCC3CC(NCc3c(-c5c(Cl)cccc5Cl)noc3C3CC3)C4)nc2cc1F (stereo not drawn) [Example 400-24] | 88.2 | < 0.001
O=C(NS(=O)(=O)C1CC1)c1cnc2nc(N3C4CCC3CC(NCc3c(-c5c(Cl)cccc5Cl)noc3C3CC3)C4)sc2n1 (stereo not drawn) [Example 400-25] | 72 | 0.001 to 0.1
CC1(S(=O)(=O)NC(=O)c2cnc3nc(N4C5CCC4CC(NCc4c(-c6c(Cl)cccc6Cl)noc4C4CC4)C5)sc3n2)CC1 (stereo not drawn) [Example 400-26] | 97.2 | < 0.001
Cc1cc(C(=O)NS(=O)(=O)C2(C)CC2)cc2sc(N3C4CCC3CC(NCc3c(-c5c(Cl)cccc5Cl)noc3C3CC3)C4)nc12 (stereo not drawn) [Example 400-29] | 118 | < 0.001
CC1(S(=O)(=O)NC(=O)c2cc3sc(N4C5CCC4CC(NCc4c(-c6c(Cl)cccc6Cl)noc4C4CC4)C5)nc3cc2-c2ccccc2)CC1 (stereo not drawn) [Example 400-32] | 116 | < 0.001
CC1(S(=O)(=O)NC(=O)c2cc3sc(N4C5CCC4CC(NCc4c(-c6c(Cl)cccc6Cl)noc4C4CC4)C5)nc3c3ccccc23)CC1 (stereo not drawn) [Example 400-33] | 91 | < 0.001
CC1(S(=O)(=O)NC(=O)c2cc(C3CC3)c3nc(N4C5CCC4CC(NCc4c(-c6c(Cl)cccc6Cl)noc4C4CC4)C5)sc3c2)CC1 (stereo not drawn) [Example 400-35] | 117 | 0.001 to 0.1
O=C(NS(=O)(=O)C1CC1)c1ccc(N2C3CCC2CC(NCc2c(-c4c(Cl)cccc4Cl)noc2C2CC2)C3)nc1 (stereo not drawn) [Example 400-37] | 82.5 | 0.001 to 0.1
O=C(O)c1ccc2nc(N3C4CCC3CC(NCc3c(-c5ccccc5OC(F)(F)F)noc3C3CC3)C4)sc2c1 (stereo not drawn) [Example 402] | 112 | 0.001 to 0.1
COC(=O)c1cc(F)c2nc(N3C4CCC3CC(NCc3c(-c5ccccc5OC(F)(F)F)noc3C3CC3)C4)sc2c1 (stereo not drawn) [Example 403] | 61 | 0.001 to 0.1
O=C(O)c1cc(F)c2nc(N3C4CCC3CC(NCc3c(-c5ccccc5OC(F)(F)F)noc3C3CC3)C4)sc2c1 (stereo not drawn) [Example 404] | 88 | 0.001 to 0.1
COC(=O)c1cc(OC(C)C)c2nc(N3C4CCC3CC(NCc3c(-c5ccccc5OC(F)(F)F)noc3C3CC3)C4)sc2c1 (stereo not drawn) [Example 413] | 118 | 0.001 to 0.1
CC(C)Oc1cc(C(=O)O)cc2sc(N3C4CCC3CC(NCc3c(-c5ccccc5OC(F)(F)F)noc3C3CC3)C4)nc12 (stereo not drawn) [Example 414] | 121 | < 0.001
O=C(O)c1ccc2nc(N3C4CCC3CC(NCc3c(-c5ccccc5OC(F)(F)F)noc3C3CC3)C4)ccc2c1 (stereo not drawn) [Example 514] | 100 | 0.001 to 0.1

Structure (SMILES) | Emax [%] | EC50 [µM]
O=C(O)c1ccc(N2C3CCC2CC(NCc2c(-c4ccccc4OC(F)(F)F)noc2C2CC2)C3)nc1 (stereo not drawn) [Example 597] | 83.5 | 0.001 to 0.1
O=C(O)c1ccc2nc(N3CCC(NCc4c(-c5ccccc5OC(F)(F)F)noc4C4CC4)CC3)sc2c1 [Example 638] | 107 | 0.1 to 1
COC(=O)c1cc(OC(C)C)c2nc(N3CCC(NCc4c(-c5ccccc5OC(F)(F)F)noc4C4CC4)CC3)sc2c1 [Example 639] | 13 | 0.1 to 1
CC(C)Oc1cc(C(=O)O)cc2sc(N3CCC(NCc4c(-c5ccccc5OC(F)(F)F)noc4C4CC4)CC3)nc12 [Example 640] | 92.3 | 0.001 to 0.1
COC(=O)c1cc(F)c2nc(N3CCC(NCc4c(-c5ccccc5OC(F)(F)F)noc4C4CC4)CC3)sc2c1 [Example 641] | 40 | 0.1 to 1
O=C(O)c1cc(F)c2nc(N3CCC(NCc4c(-c5ccccc5OC(F)(F)F)noc4C4CC4)CC3)sc2c1 [Example 642] | 85.3 | 0.1 to 1
COC(=O)c1cc(C2CC2)c2nc(N3C4CCC3CC(NCc3c(-c5ccccc5OC(F)(F)F)noc3C3CC3)C4)sc2c1 (stereo not drawn) [Example 643] | 52 | 0.001 to 0.1
O=C(O)c1cc(C2CC2)c2nc(N3C4CCC3CC(NCc3c(-c5ccccc5OC(F)(F)F)noc3C3CC3)C4)sc2c1 (stereo not drawn) [Example 644] | 94.5 | < 0.001
O=C(O)c1cc(F)c(N2C3CCC2CC(NCc2c(-c4ccccc4OC(F)(F)F)noc2C2CC2)C3)c(F)c1 (stereo not drawn) [Example 646] | 105 | 0.001 to 0.1
O=C(NS(=O)(=O)C1CC1)c1cnc2nc(N3C4CCC3CC(NCc3c(-c5ccccc5OC(F)(F)F)noc3C3CC3)C4)sc2n1 (stereo not drawn) [Example 695] | 75 | 0.001 to 0.1
CCOC(=O)c1ccc2nc(N3C4CCC3CC(NCc3c(-c5ccccc5OC(F)(F)F)noc3C3CC3)C4)sc2c1 (stereo not drawn) [Example 696] | 59.1 | 0.001 to 0.1
CC1(S(=O)(=O)NC(=O)c2ccc3nc(N4C5CCC4CC(NCc4c(-c6ccccc6OC(F)(F)F)noc4C4CC4)C5)sc3c2)CC1 (stereo not drawn) [Example 702] | 113 | 0.001 to 0.1
O=C(NS(=O)(=O)C1CC1)c1ccc2nc(N3CCC(NCc4c(-c5ccccc5OC(F)(F)F)noc4C4CC4)CC3)sc2c1 [Example 791] | 63 | > 1
CC1(S(=O)(=O)NC(=O)c2ccc3nc(N4CCC(NCc5c(-c6ccccc6OC(F)(F)F)noc5C5CC5)CC4)sc3c2)CC1 [Example 900-1] | 80.5 | 0.1 to 1
CC1(S(=O)(=O)NC(=O)c2cc(F)c3nc(N4C5CCC4CC(NCc4c(-c6ccccc6OC(F)(F)F)noc4C4CC4)C5)sc3c2)CC1 (stereo not drawn) [Example 900-2] | 109 | 0.001 to 0.1
O=C(NS(=O)(=O)C1CC1)c1cc(F)c2nc(N3CCC(NCc4c(-c5ccccc5OC(F)(F)F)noc4C4CC4)CC3)sc2c1 [Example 900-3] | 44.8 | 0.1 to 1
CC1(S(=O)(=O)NC(=O)c2cc(F)c3nc(N4CCC(NCc5c(-c6ccccc6OC(F)(F)F)noc5C5CC5)CC4)sc3c2)CC1 [Example 900-4] | 84.8 | > 1
CC(C)Oc1cc(C(=O)NS(=O)(=O)C2CC2)cc2sc(N3CCC(NCc4c(-c5ccccc5OC(F)(F)F)noc4C4CC4)CC3)nc12 [Example 900-5] | 68.5 | 0.1 to 1
CC(C)Oc1cc(C(=O)NS(=O)(=O)C2(C)CC2)cc2sc(N3CCC(NCc4c(-c5ccccc5OC(F)(F)F)noc4C4CC4)CC3)nc12 [Example 900-6] | 112 | 0.001 to 0.1
CC1(S(=O)(=O)NC(=O)c2cc(C3CC3)c3nc(N4C5CCC4CC(NCc4c(-c6ccccc6OC(F)(F)F)noc4C4CC4)C5)sc3c2)CC1 (stereo not drawn) [Example 900-9] | 122 | < 0.001
O=C(NS(=O)(=O)C1CC1)c1cc(F)c(N2C3CCC2CC(NCc2c(-c4ccccc4OC(F)(F)F)noc2C2CC2)C3)c(F)c1 (stereo not drawn) [Example 900-11] | 70.5 | 0.001 to 0.1
CC1(S(=O)(=O)NC(=O)c2cc(F)c(N3C4CCC3CC(NCc3c(-c5ccccc5OC(F)(F)F)noc3C3CC3)C4)c(F)c2)CC1 (stereo not drawn) [Example 900-12] | 67 | 0.001 to 0.1
O=C(NS(=O)(=O)C1CC1)c1ccc(N2C3CCC2CC(NCc2c(-c4ccccc4OC(F)(F)F)noc2C2CC2)C3)nc1 (stereo not drawn) [Example 900-13] | 59.5 | 0.001 to 0.1
CC1(S(=O)(=O)NC(=O)c2ccc(N3C4CCC3CC(NCc3c(-c5ccccc5OC(F)(F)F)noc3C3CC3)C4)nc2)CC1 (stereo not drawn) [Example 900-14] | 46.5 | 0.1 to 1
